Measurements as given in paper PMC6158167 (Nature Communications, 2018).

What was measured:
ShHTL7 [1] = target: T1, ShHTL7 (Striga hermonthica, UniProt A0A0M3PNA2); experiment: YLG competition assay, WT ShHTL7; format: biochemical
T1 sequence (A0A0M3PNA2 1-271): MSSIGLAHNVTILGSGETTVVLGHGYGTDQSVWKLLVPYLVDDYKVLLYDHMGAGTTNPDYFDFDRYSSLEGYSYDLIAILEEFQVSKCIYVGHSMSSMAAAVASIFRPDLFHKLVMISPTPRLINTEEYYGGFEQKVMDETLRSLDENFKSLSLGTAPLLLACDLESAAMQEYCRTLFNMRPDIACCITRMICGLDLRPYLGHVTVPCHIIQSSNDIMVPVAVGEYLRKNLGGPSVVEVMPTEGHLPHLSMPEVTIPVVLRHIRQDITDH
Method: (§1) The YLG assays were conducted as previously described[28] with minor modifications. Ten microliters of 0.1 mg mL^−1 ShHTL7 protein in a reaction buffer containing 20 mM HEPES, pH 7.0, 150 mM NaCl and 80 μL of reaction buffer were mixed in a 96-well black plate (Grenier). Ten microliters of 10 μM YLG was added to the solution and incubated at 25 °C for 1 h prior to measurement. The fluorescence intensity was measured using a SpectraMax® iD5 Multi-Mode Microplate Reader (Molecular Devices). Measurements were performed at room temperature under a 480 nm excitation wavelength, a 530 nm emission wavelength, a manual PMT of 500, and a read height of 1.00 mm. The fluorescence can be detected if YLG is hydrolyzed. The RFU (relative fluorescence unit) was calculated by subtracting the fluorescence of the buffer (without protein) and then dividing by the fluorescence of wild-type ShHTL7. […]
(§2) in a previous study6, the enzymes were incubated with YLG at the indicated concentrations. The RFU (relative fluorescence units) was calculated by dividing the fluorescence of hydrolysis at 10 μM YLG by wild type (WT) ShHTL7 after subtracting the fluorescence of the buffer. The Km values were calculated from a Michaelis-Menten plot using GraphPad Prism software and are shown in the plots. […]
(§3) The inhibition constant Ki was calculated according to the Cheng-Prusoff equation7. […]

ShMAX2 and ShD14 = experiment: In vitro pull-down ShD14-ShMAX2; format: binding, Striga hermonthica; details: 50 μM ligand, CBB staining
Method: (§4) Ni-NTA pull-down assays were performed with purified ShMAX2 or AtMAX2 as the bait and […]14, or GST-AtD14 as the prey. The molecular weight of the HTL/D14 proteins is nearly the same as that of ASK1; therefore, the HTL/D14 proteins were fused to GST, increasing their molecular weight for detection on SDS-PAGE gels. […] The protein complexes were then eluted with 100 μL of elution buffer containing 50 mM Bis-Tris, pH 6.8, 500 mM NaCl, and 500 mM imidazole and subjected to SDS-PAGE analysis.

AtHTL = target: T2, AtHTL (Arabidopsis thaliana, UniProt Q9SZU7); details: cited from earlier work
T2 sequence (Q9SZU7 1-270): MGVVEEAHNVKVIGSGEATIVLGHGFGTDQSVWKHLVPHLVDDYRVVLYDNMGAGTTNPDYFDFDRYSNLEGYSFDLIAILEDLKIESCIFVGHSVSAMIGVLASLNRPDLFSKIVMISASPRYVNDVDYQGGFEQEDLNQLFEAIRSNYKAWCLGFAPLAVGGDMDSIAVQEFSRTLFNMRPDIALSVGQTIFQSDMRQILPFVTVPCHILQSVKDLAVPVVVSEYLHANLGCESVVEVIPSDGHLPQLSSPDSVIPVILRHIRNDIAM

ShHTL7 T190F/C194F [2] = target: ShHTL7 T190F/C194F (Striga hermonthica, UniProt A0A0M3PNA2, C194F/T190F); experiment: YLG competition assay, ShHTL7 double mutation; format: biochemical
Method: as §1, with “ShHTL7. The experiment was repeated 6 times independently.” for “ShHTL7.”
as §2, with “plots. (d) Competition assays with synthetic SL rac-GR24. WT and ShHTL7 protein” for “plots.”
(§5) The inhibition constant Ki was calculated according to the Cheng-Prusoff equation7. Kirac-GR24 values were 0.07 ± 0.01 μM for WT; 0.15 ± 0.04 μM for the T190F/C194F double mutation; and 11.85 ± 3.43 μM for the L124F/T190F/C194F triple mutation as shown in the plots. The experiment was repeated 4 times independently, and each replicate is represented by a black dot.
(§6) The mean values are fitted, and the error bars represent the standard deviation (S.D.) of three replicates (means ± S.D., n=3).

ShHTL7 T190F/C194F [3] = experiment: YLG competition assay, ShHTL7 double mutation; format: biochemical, Striga hermonthica; details: from Ki in YLG competition assays
Method: as §1, with “ShHTL7. The experiment was repeated 6 times independently.” for “ShHTL7.”
as §2, with “plots. (d) Competition assays with synthetic SL rac-GR24. WT and ShHTL7 protein” for “plots.”
as §5, §6

ShHTL4 = experiment: SL hydrolysis assay (HPLC), ShHTL4; format: biochemical, Striga hermonthica; details: 3.2 μM SL, 1.6 μM enzyme, 30 min, 30 °C
Method: (§7) Next, 50 μL of 1 M HCl was added to each reaction solution, and the reaction solutions were extracted 3 times with 300 μL of ethyl acetate. The ethyl acetate layers were combined and dried in vacuo and were then dissolved in 50 μL of methanol. For each layer, 5 μL was applied to the reverse-phase HPLC (Shimadzu LC-2030C). The analytical column was a CAPCELL CORE C18 (Φ 2.1 × 100 mm, Shiseido). The analytes were eluted under gradient conditions at a flow rate of 0.20 mL min^−1 with a linear ramp of methanol to 90% methanol at 19 min, which was maintained for 6 min before resetting to the original conditions. […] The percentage of hydrolyzed SL was calculated and used for statistical analyses. One-tailed unpaired Student’s t-tests were used for comparison between buffer samples and enzyme samples.

[4] = system: ShHTL7–ShMAX2 interaction; experiment: Y2H assay ShHTL7-ShMAX2; format: cell-based, Striga hermonthica; details: 5 μM ligand
Description: (§8) Full-length sequences of ShD14, ShHTL1, ShHTL3, ShHTL4, ShHTL7, and AtHTL were cloned into the pGBKT7 vector as bait (Clontech), and the coding regions of ShMAX2 and AtMAX2 were cloned into the pGADT7 vector as prey (Clontech). MAX2 was supposed to be unstable without ASK1. Therefore, AtASK1 was cloned into the N terminus of ShMAX2 and AtMAX2 with a 16-residue linker for co-expression. The bait and prey plasmids were co-transformed into the yeast (Saccharomyces cerevisiae) strain Y2HGold (Clontech) by the lithium acetate-mediated method. The presence of both plasmids was confirmed by growth on SD/-Leu/-Trp (-LT) plates. […] The plates were incubated for 5 days at 30 °C.

ShHTL7 [5] = target: T1, ShHTL7; experiment: SL hydrolysis assay (HPLC), ShHTL7; format: biochemical; details: 3.2 μM SL, 1.6 μM enzyme, 30 min, 30 °C
Method: as §7

ShD14 [6] = experiment: SL hydrolysis assay (HPLC), ShD14; format: biochemical, Striga hermonthica; details: 3.2 μM SL, 1.6 μM enzyme, 30 min, 30 °C
Method: as §7

ShMAX2 and ShHTL4 = experiment: In vitro pull-down ShHTL4-ShMAX2; format: binding, Striga hermonthica; details: 50 μM ligand, CBB staining
Method: as §4

ShHTL1 [7] = target: T3, ShHTL1 (Striga hermonthica, UniProt A0A0M4AV81); experiment: SL hydrolysis assay (HPLC), ShHTL1; format: biochemical; details: 3.2 μM SL, 1.6 μM enzyme, 30 min, 30 °C
Method: as §7

ShHTL7 L124F/T190F/C194F = ShHTL7 L124F/T190F/C194F (Striga hermonthica, UniProt A0A0M3PNA2, C194F/L124F/T190F); experiment: YLG competition assay, ShHTL7 triple mutation; format: biochemical
Method: as §1, §2, §3

ShHTL3 [8] = experiment: SL hydrolysis assay (HPLC), ShHTL3; format: biochemical, Striga hermonthica; details: 3.2 μM SL, 1.6 μM enzyme, 30 min, 30 °C
Method: as §7

ShHTL1 [9] = target: T3, ShHTL1; experiment: ITC binding to ShHTL1; details: 750 μM ShHTL1 into 100 μM rac-GR24, 20 °C
Method: The binding assays were performed using a MicroCal iTC200 isothermal titration calorimeter (GE Healthcare). Prior to the ITC experiments, concentrated ShD14, ShHTL1, ShHTL4, and ShHTL7 were exchanged into a buffer consisting of 20 mM HEPES (pH 8.0) and 150 mM NaCl to remove dithiothreitol and were then adjusted to a final concentration of 150 μM. The sample cell was filled with protein solution (204 μL). Nineteen consecutive 2.0-μL aliquots of 3 mM KAR1 (3-methyl-2H-furo [2,3-c] pyran-2-one) were injected into a prepared protein solution at 150 s intervals at 20 °C. The first injection volume was 0.4 μL, and the observed thermal peak was excluded from the data analysis. A negative control was obtained by titrating 3 mM KAR1 into the buffer (20 mM HEPES, pH 8.0, 150 mM NaCl) in the same manner. Data fitting was performed in “one set of sites” mode, and KD values were calculated using Origin software provided by MicroCal.
Binding analyses of ShHTLs and ShD14 with KAR1. The ITC assays were performed by adding 3 mM KAR1 to 150 μM ShHTL1 (a), ShHTL4 (b), ShHTL7
(c), ShD14 (d) and AtHTL (e).
ShHTL1 and AtHTL were fitted using the MicroCal origin software with the “one binding site” model.

ShD14–ShMAX2 interaction = experiment: Y2H assay ShD14-ShMAX2; format: cell-based, Striga hermonthica; details: 5 μM ligand
Description: as §8

AtD14 = target: AtD14; parameters: method as in earlier work; details: read-out: Kd of rac-GR24 binding to AtD14; quoted in reviewer comment; cited from earlier work
ShHTL3 [10] = system: ShHTL3; parameters: method as in PMID 27507097; details: cited from earlier work
[11] = target: PYR1 in complex with co-receptor TYPE 2C PROTEIN PHOSPHATASE (PP2C); parameters: method as in PMID 21847091; details: cited from earlier work
[…] 1 (PYR1) = target: […] 1 (PYR1); parameters: method as in PMID 21847091; details: read-out: KD of PYR1 for ABA; cited from earlier work
ShD14 [12] = system: ShD14; parameters: method as in PMID 26293962; details: cited from earlier work
ShD14 [13] = experiment: YLG hydrolysis assay, ShD14; format: biochemical, Striga hermonthica; details: fluorescence, repeated YLG hydrolysis assays
Method: The YLG assays were conducted as previously described[28] with minor modifications. […] The fluorescence intensity was measured using a SpectraMax® iD5 Multi-Mode Microplate Reader (Molecular Devices). Measurements were performed at room temperature under a 480 nm excitation wavelength, a 530 nm emission wavelength, a manual PMT of 500, and a read height of 1.00 mm. The fluorescence can be detected if YLG is hydrolyzed. […] The experiment was repeated 6 times independently. page 4: Supplementary Figure 4. YLG hydrolysis assays of OsD14 and ShD14. RFU (relative fluorescence units) was calculated by dividing the fluorescence of OsD14. The fluorescence can be detected under a 490 nm excitation wavelength and a 520 nm emission wavelength if YLG is hydrolyzed. The experiments were repeated 4 (OsD14) or 6 times independently. Columns represent the mean RFU, and the error bars represent the standard deviation (S.D.). Each replicate is indicated by a black circle.

T3 sequence (A0A0M4AV81 entry or part of it): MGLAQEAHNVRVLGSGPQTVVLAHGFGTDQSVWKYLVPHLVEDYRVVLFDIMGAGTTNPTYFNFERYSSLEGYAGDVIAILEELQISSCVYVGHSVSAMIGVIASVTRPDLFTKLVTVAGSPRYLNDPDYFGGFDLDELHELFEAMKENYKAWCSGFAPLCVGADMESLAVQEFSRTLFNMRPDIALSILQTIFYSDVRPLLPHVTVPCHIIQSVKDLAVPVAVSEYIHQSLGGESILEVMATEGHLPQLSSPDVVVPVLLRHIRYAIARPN
ShHTL7 L124F/T190F/C194F, sequence (A0A0M3PNA2 whole entry L124F/T190F/C194F): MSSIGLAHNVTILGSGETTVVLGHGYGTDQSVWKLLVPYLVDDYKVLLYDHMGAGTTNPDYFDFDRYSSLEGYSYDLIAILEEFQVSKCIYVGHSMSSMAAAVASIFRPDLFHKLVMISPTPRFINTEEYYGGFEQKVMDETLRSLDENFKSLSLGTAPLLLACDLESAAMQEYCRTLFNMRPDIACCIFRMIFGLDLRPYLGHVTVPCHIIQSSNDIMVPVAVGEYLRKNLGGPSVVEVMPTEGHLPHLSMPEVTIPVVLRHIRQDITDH
ShHTL7 T190F/C194F (Striga hermonthica, UniProt A0A0M3PNA2, C194F/T190F), sequence (A0A0M3PNA2 whole entry T190F/C194F): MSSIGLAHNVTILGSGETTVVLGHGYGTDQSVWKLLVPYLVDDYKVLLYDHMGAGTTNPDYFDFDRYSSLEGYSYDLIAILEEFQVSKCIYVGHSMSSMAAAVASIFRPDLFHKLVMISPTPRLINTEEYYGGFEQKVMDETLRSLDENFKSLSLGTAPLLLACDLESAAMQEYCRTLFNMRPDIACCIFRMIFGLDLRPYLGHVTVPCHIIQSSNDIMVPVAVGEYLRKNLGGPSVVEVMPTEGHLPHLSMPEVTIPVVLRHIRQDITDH

CC1=CC(O/C=C2/C(=O)OC3c4ccccc4CC23)OC1=O (racemic) [rac-GR24]
IC50 (ShHTL7 [1]): 170 ± 10 nM
Ki (ShHTL7 [1]): 70 ± 10 nM
ligand-dependent ShMAX2-ShD14 interaction (ShMAX2 and ShD14): direct interaction was detected between ShMAX2 and ShD14 in a rac-GR24-dependent manner
hydrolysis of rac-GR24 by AtHTL (AtHTL): able to hydrolyze rac-GR24 to some extent
IC50 (ShHTL7 T190F/C194F [2]): 210 ± 50 nM
Ki (ShHTL7 T190F/C194F [2]): 150 ± 40 nM
decrease in rac-GR24 binding affinity, T190F/C194F vs ShHTL7 (ShHTL7 T190F/C194F [3]): twofold decrease
hydrolytic activity of ShHTL4 toward SL (ShHTL4): able to hydrolyze
ligand-induced ShHTL7-ShMAX2 interaction [4]: triggered the interaction of ShHTL7 with ShMAX2
hydrolytic activity of ShHTL7 toward SL (ShHTL7 [5]): able to hydrolyze
hydrolytic activity of ShD14 toward SL (ShD14 [6]): able to hydrolyze
ligand-dependent ShMAX2-ShHTL4 interaction (ShMAX2 and ShHTL4): able to interact with ShHTL4 of the divergent clade in the presence of rac-GR24
hydrolytic activity of ShHTL1 toward SL (ShHTL1 [7]): no hydrolytic activity
IC50 (ShHTL7 L124F/T190F/C194F): 13900 ± 3410 nM
Ki (ShHTL7 L124F/T190F/C194F): 11800 ± 3430 nM
hydrolytic activity of ShHTL3 toward SL (ShHTL3 [8]): no hydrolytic activity
binding of rac-GR24 to ShHTL1 (ShHTL1 [9]): no detectable binding
ligand-induced ShD14-ShMAX2 interaction (ShD14–ShMAX2 interaction): rac-GR24-dependent ShD14–ShMAX2 interaction was also observed
Kd (AtD14): 300 nM
binding of rac-GR24 to ShHTL3 (ShHTL3 [10]): can bind to KAR1 but not rac-GR24

CC1=CC(OC=C2C(=O)OC3C4=C(CCCC4(C)C)CC23)OC1=O (stereo not drawn) [5DS, 5-deoxystrigol]
hydrolytic activity of ShHTL4 toward SL (ShHTL4): able to hydrolyze
hydrolytic activity of ShHTL7 toward SL (ShHTL7 [5]): able to hydrolyze
hydrolytic activity of ShD14 toward SL (ShD14 [6]): able to hydrolyze
hydrolytic activity of ShHTL1 toward SL (ShHTL1 [7]): weak 5DS hydrolytic activity

CC1=CC(=O)CC(C)(C)[C@@]1(O)/C=C/C(C)=C\C(=O)O [ABA, abscisic acid]
binding affinities for ABA, PYR1-PP2C complex [11]: nanomolar range
Kd ([…] 1 (PYR1)): 97000 nM

CC1=C[C@H](O/C=C2/C(=O)O[C@@H]3c4ccccc4C[C@H]23)OC1=O [GR24^ent−5DS]
hydrolysis of GR24^ent−5DS by AtHTL (AtHTL): able to hydrolyze GR24^ent−5DS

CCOC(=O)c1ccccc1-c1c2ccc(=O)cc-2oc2cc(OC3C=C(C)C(=O)O3)ccc12 (stereo not drawn) [YLG, Yoshimulactone Green]
hydrolytic activity of ShD14 toward YLG, previous study (ShD14 [12]): no hydrolytic activity toward YLG
hydrolysis of YLG by ShD14 (ShD14 [13]): not YLG

CCOC(=O)c1ccccc1-c1c2ccc(=O)cc-2oc2cc(OC3C=CC(=O)O3)ccc12 (stereo not drawn) [dYLG, desmethyl-YLG]
hydrolysis of dYLG by AtHTL (AtHTL): hydrolyze the synthesized desmethyl-YLG (dYLG)
